What was measured:
human α7 receptor = molecular target: T1, human α7 receptor (Homo sapiens, UniProt P36544); experiment: α7 NNR flux assay (FDSS Ca assay, positive allosteric modulation of acetylcholine response); assay type: cell-based; conditions: human α7 receptor stably expressed in rat GH4C1 cells; acetylcholine 20 μM; % modulation relative to PNU-120596 set to 100%
T1 construct: host or cells: rat GH4C1 cell line
Protocol: The nicotinic acetylcholine receptor α7 is a calcium-permeable ion channel, whose activity can be measured by over expression in mammalian cells or oocytes. In this version of the assay, the human α7 receptor is stably expressed in the rat GH4C1 cell line. The assay was used to identify positive allosteric modulators (PAMs) of the α7 receptor. Activation of the channel was measured by loading cells with the calcium-sensitive fluorescent dye. Calcium-4 (Assay kit from Molecular Devices), and then measuring real-time changes, in fluorescence upon treatment with test compounds.
The cell line ChanClone GH4C1-nAChRalpha7 from Genionics was seeded from frozen stock in 384-well plates in culture media 2-3 days before experiment to form an approximately 80% confluent layer on the day of experiment.
The cell culture were split into “22.5 cm×22.5 cm”-plates with approximately 100×10^3 cells/cm^2. After four days incubation in a humidified incubator at 37° C. and 5% CO2, it had grown to an 80-90% confluent layer, and the cells were harvested.
Two or three days before the experiment the cells were seeded in 384 well plates from Greiner bio-one (781946, CELLCOAT, Poly-D-Lysine, black, μClear).
The cells were seeded in 384 well plates with 30 μL/well (30000 cells/well) while stirring the cell suspension or otherwise preventing the cells from precipitating.
The loading buffer was 5% v/v Calcium-4 Kit and 2.5 mM Probenecid in assay buffer.
Culture media was removed from the cell plates and 20 μL loading buffer was added in each well. The cell plates were placed in trays and incubated 90 minutes in the incubator (37° C.). Thereafter the plates were incubated 30 minutes at room temperature, still protected from light.
The assay buffer was HBSS with 20 mM HEPES, pH 7.4 and 3 mM CaCl2.
[…] 10 mM compound solution in DMSO was diluted in 50 μL assay buffer. The final test concentrations in the cell plates were 20-10-5-2.5-1.25-0.625-0.312-0.156-0.078-0.039 μM. Assay buffer and 3 μM PNU-120596 were used for control. The agonist acetylcholine was added to a final concentration of 20 μM (˜EC100). In the FDSS7000 the Ex480-Em540 was measured with 1 second intervals. The baseline was made of 5 frames before addition of test compounds, and 95 frames more were made before addition of acetylcholine. The measurement stopped 30 frames after the 2nd addition. Raw data for each well were collected as “the maximum fluorescence count” in the interval 100-131 seconds and as “the average fluorescence count” in the interval 96-100 seconds. The positive allosteric modulation in the 2nd addition was the enhancement of agonist response with test compound compared to agonist alone.
Results were calculated as % modulation of test compound compared to the reference PNU-120596 set to 100%.

α7 nACh receptors = experiment: α7 NNR oocyte assay (electrophysiological recordings in Xenopus oocytes); assay type: cell-based, human or rat; conditions: compound at 10 μM co-applied with ACh (30 μM), fold modulation of the control response; for Fold modulation, peak: peak response; for Fold modulation, AUC: total charge (AUC)
Protocol: Expression of α7 nACh Receptors in Xenopus Oocytes.
Oocytes were surgically removed from mature female Xenepus laevis anaesthetized in 0.4% MS-222 for 10-15 min. The oocytes were then digested at room temperature for 2-3 hours with 0.5 mg/mL collagenase (type IA Sigma-Aldrich) in OR2 buffer (82.5 mM NaCl, 2.0 mM KCl, 1.0 mM MgCl2 and 5.0 mM HEPES, pH 7.6). Oocytes avoid of the follicle layer were selected and incubated for 24 hours in Modified Barth's Saline buffer (88 mM NaCl, 1 mM KCl, 15 mM HEPES, 2.4 mM NaHCO3, 0.41 mM CaCl2, 0.82 mM MgSO4, 0.3 mM Ca(NO3)2) supplemented with 2 mM sodium pyruvate, 0.1 U/l penicillin and 0.1 μg/1 streptomycin. Stage 1V oocytes were identified and injected with 4.2-48 nl of nuclease free water containing 0.1-1.2 ng of cRNA coding for human α7 nACh receptors or 3.0-32 ng of cRNA coding for rat α7 nACh receptors and incubated at 18° C. for 1-10 days when they were used for electrophysiological recordings.
Electrophysiological Recordings of α7 nACh Receptors Expressed in Oocytes.
Oocytes were used for electrophysiological recordings 1-10 days after injection. Oocytes were placed in a 1 mL bath and perfused with Ringer buffer (115 mM NaCl, 2.5 mM KCl, 10 mM HEPES, 1.8 mM CaCl2, 0.1 mM MgCl2, pH 7.5)'. Cells were impaled with agar plugged 0.2-1 MΩ electrodes containing 3 M KCl and voltage clamped at −90 mV by a GeneClamp 500B amplifier. The experiments were performed at room temperature. Oocytes were continuously perfused with Ringer buffer and the drugs were applied in the perfusate. ACh (30 μM) applied for 30 sec were used as the standard agonist for activation of the α7 nACh receptors. In the standard screening set-up the new test compound (10 μM or 30 μM) were applied for 1 min of pre-application allowing for evaluation of agonistic activity followed by 30 sec of co-application with ACh (30 μM) allowing for evaluation of PAM activity. The response of co-application was compared to the agonistic response obtained with ACh alone. The drug induced effects on both the peak response and the total charge (AUC) response were calculated thus giving the effect of drug induced PAM activity as fold modulation of the control response. Table 2 indicates fold modulation of compounds No. 21, 22, 24, 34, 35 and 36 at determined at 10 μM.
For more elaborate studies doses-response curves can be performed for evaluation of max-fold modulation and EC50 values for both peak and AUC responses.

T1 sequence (P36544 23-502): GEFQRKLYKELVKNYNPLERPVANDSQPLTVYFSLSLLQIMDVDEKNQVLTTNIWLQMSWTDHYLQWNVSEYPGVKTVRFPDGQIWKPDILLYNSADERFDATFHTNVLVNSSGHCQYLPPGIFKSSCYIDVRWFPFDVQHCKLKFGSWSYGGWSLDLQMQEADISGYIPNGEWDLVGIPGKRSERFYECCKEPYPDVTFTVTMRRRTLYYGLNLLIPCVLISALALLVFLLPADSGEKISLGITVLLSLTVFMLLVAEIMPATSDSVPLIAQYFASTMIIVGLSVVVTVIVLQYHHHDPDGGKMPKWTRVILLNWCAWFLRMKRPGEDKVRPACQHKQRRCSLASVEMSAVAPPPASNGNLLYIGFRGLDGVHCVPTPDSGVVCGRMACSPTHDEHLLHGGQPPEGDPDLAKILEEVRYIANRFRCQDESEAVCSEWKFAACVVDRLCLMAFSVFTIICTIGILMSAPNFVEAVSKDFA

Row | Compound | EC50 (human α7 receptor) | melting point | Fold modulation, peak (α7 nACh receptors) | Fold modulation, AUC (α7 nACh receptors)
1 | Cc1cc(C(=O)Nc2c(C)ccnc2C)c2c(C)nn(-c3ccc(S(N)(=O)=O)cc3)c2n1 [Compound 21, 3,6-Dimethyl-1-(4-sulfamoyl-phenyl)-1H-pyrazolo[3,4-b]pyridine-4-carboxylic acid (2,4-dimethyl-pyridin-3-yl)-amide] | ≥ 20 µM |  | 1.7 | 1.7
2 | Cc1cc(C(=O)Nc2c(C)ccnc2C)c2c(C)nn(-c3ccc(C(F)(F)F)cc3)c2n1 [Compound 22, 3,6-Dimethyl-1-(4-trifluoromethyl-phenyl)-1H-pyrazolo[3,4-b]pyridine-4-carboxylic acid (2,4-dimethyl-pyridin-3-yl)-amide] | ≥ 20 µM |  | 8.1 | 3.2
3 | COc1ccc(-n2nc(OC)c3c(C(=O)Nc4c(C)ccnc4C)cc(C)nc32)cc1 [Compound 24, 3-Methoxy-1-(4-methoxy-phenyl)-6-methyl-1H-pyrazolo[3,4-b]pyridine-4-carboxylic acid (2,4-dimethyl-pyridin-3-yl)-amide] | ≥ 20 µM |  | 5.1 | 2.5
4 | COc1cc(C)ncc1NC(=O)c1cc(C)nc2c1c(C)nn2-c1ccccc1 [Compound 29, 3,6-Dimethyl-1-phenyl-1H-pyrazolo[3,4-b]pyridine-4-carboxylic acid (4-methoxy-6-methyl-pyridin-3-yl)-amide] | 5.1 µM | 206 to 207 °C |  | 
5 | Cc1cc(C(=O)Nc2cnccc2C)c2c(C)nn(-c3ccccc3)c2n1 [Compound 32, 3,6-Dimethyl-1-phenyl-1H-pyrazolo[3,4-b]pyridine-4-carboxylic acid (4-methyl-pyridin-3-yl)-amide] | 6.2 µM | 227 to 228 °C |  | 
6 | Cc1cc(C(=O)Nc2c(C)ccnc2C)c2c(C)nn(-c3ccc(S(C)(=O)=O)cc3)c2n1 [Compound 34, 1-(4-Methanesulfonyl-phenyl)-3,6-dimethyl-1H-pyrazolo[3,4-b]pyridine-4-carboxylic acid (2,4-dimethyl-pyridin-3-yl)-amide] | ≥ 20 µM |  | 1.9 | 1.9
7 | COc1ccc(-n2nc(C)c3c(C(=O)Nc4c(C)ccnc4C)cc(-c4ccccc4)nc32)cc1 [Compound 35, 1-(4-Methoxy-phenyl)-3-methyl-6-phenyl-1H-pyrazolo[3,4-b]pyridine-4-carboxylic acid (2,4-dimethyl-pyridin-3-yl)-amide] | ≥ 20 µM |  | 14 | 9.2

Further lines, with some results ahead:

Row | EC50 (human α7 receptor) | melting point | Compound | Fold modulation, peak (α7 nACh receptors) | Fold modulation, AUC (α7 nACh receptors)
8 | 3.9 µM | 224 to 227 °C | COc1ccc(-n2nc(C)c3c(C(=O)Nc4c(C)ccnc4C)cc(C)nc32)cc1 [Compound 1, 1-(4-Methoxy-phenyl)-3,6-dimethyl-1H-pyrazolo[3,4-b]pyridine-4-carboxylic acid (2,4-dimethyl-pyridin-3-yl)-amide] |  | 
9 | 5 µM | 172 to 174 °C | COc1nccc(C)c1NC(=O)c1cc(C)nc2c1c(C)nn2-c1ccccc1 [Compound 27, 3,6-Dimethyl-1-phenyl-1H-pyrazolo[3,4-b]pyridine-4-carboxylic acid (2-methoxy-4-methyl-pyridin-3-yl)-amide] |  | 
10 | 5.6 µM | 208 to 209 °C | Cc1cc(C(=O)Nc2cccnc2C)c2c(C)nn(-c3ccccc3)c2n1 [Compound 31, 3,6-Dimethyl-1-phenyl-1H-pyrazolo[3,4-b]pyridine-4-carboxylic acid (2-methyl-pyridin-3-yl)-amide] |  | 
11 | ≥ 20 µM |  | COc1ccc(-n2nc(C)c3c(C(=O)Nc4cnccc4C#N)cc(C)nc32)cc1 [Compound 36, 1-(4-Methoxy-phenyl)-3,6-dimethyl-1H-pyrazolo[3,4-b]pyridine-4-carboxylic acid (4-cyano-pyridin-3-yl)-amide] | 7.9 | 3.9

Source: patent US20130005743A1, “New positive allosteric modulators of nicotinic acetylcholine receptor” (H. Lundbeck A/S, priority 2011, published 2013)
